Consider nine molecules from patent publication US20240425523A1, “Compounds for the Degradation of EGFR Kinase” (Beigene Switzerland GMBH, priority 2023, published 2024).

Type in all cases: cell-based
For test [1], the target named is T1, EGFR L858R (BaF3-L858R cells) (Homo sapiens, UniProt P00533, L858R).
T1 construct: host or cells: BaF3
The experiment in a line: Cell degradation of EGFR, HTRF assay, BaF3-L858R cells. As to conditions: 16 h treatment; for DC50: EGFR degradation; for Dmax: maximum percentage of degradation. The method in brief: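 BaF3-L858R cells treated 16 h at 37° C, 5% CO2 with compound (top 10 uM final, 5-fold, 8 doses, 0.1% DMSO). DC50 from four-parameter fit; Dmax is maximum percent degradation.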

Test [2] deals with T2, EGFR-L858R/C797S (H1975-clone #8 cells) (Homo sapiens, UniProt P00533, C797S/L858R).
T2 construct: expressed in transfected cells; host or cells: H1975 (endogenous EGFR knocked out, clone #8)
As to the kind of experiment: Cell degradation of EGFR, HTRF assay, H1975-clone#8 (L858R/C797S) cells. The note with it: 16 h treatment; for DC50: EGFR degradation; for Dmax: maximum percentage of degradation.

In test [3] the target is T3, p-EGFR L858R (BaF3-L858R cells) (Homo sapiens, UniProt P00533, L858R).
T3 construct: host or cells: BaF3
As to the kind of experiment: Cell p-EGFR inhibition assay, HTRF, BaF3-L858R cells. The note with it: 16 h treatment; for Imax (%): maximum percentage of pEGFR inhibition; for IC50: pEGFR inhibition. The method in brief:
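BaF3-L858R cells treated 16 h at 37 °C, 5% CO2 with compound from 10 uM top, 5-fold dilutions, 8 doses, in 0.1% DMSO medium. Lysates read overnight by HTRF p-EGFR antibodies; IC50 fitted to four-parameter curve against DMSO high control.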
A general note: TR-FRET usually uses a lanthanide donor and a delayed reading to cut background.

In test [4] the target is p-EGFR Del19/C797S (H1975-clone #23 cells) (Homo sapiens, UniProt P00533). As to the kind of experiment: Cell p-EGFR inhibition assay, HTRF, H1975-clone#23 (DEL19/C797S) cells. The note with it: 16 h treatment; for Imax (%): maximum percentage of pEGFR inhibition; for IC50: pEGFR inhibition. In short, it runs like this: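 Phospho-EGFR read by overnight HTRF on lysates, normalized to DMSO-treated high control; IC50, Hill slope and Imax fitted. Compounds were applied for 16 h (10 uM top, 5-fold steps, 8 doses) to an H1975 single clone carrying only exogenous Del19/C797S EGFR after sgRNA knockout of endogenous copies.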

`Cc1cc2cc(n1)-c1cnn(C)c1OC[C@H]1CCC(C1)CN1/C(=N/C2=O)Nc2ccc(N3CCN(C4CCN(c5ccc(NC6CCC(=O)NC6=O)nc5C)CC4)CC3)cc21` (stereo partly drawn) [Example 98, 3-((5-(4-(4-((7^1R,7^3S,E)-1^1,2^6-dimethyl-3-oxo-5^2,5^3-dihydro-1^1H,5^1H-9-oxa-4-aza-5(2,1)-benzo[d]imidazola-2(2,4)-pyridina-1(4,5)-pyrazola-7(1,3)-cyclopentanacyclononaphane-5^6-yl)piperazin-1-yl)piperidin-1-yl)-6-methylpyridin-2-yl)amino)piperidine-2,6-dione]: in test [1], half-maximal degradation (DC50) was put at 2.6 nM and the Dmax turned out to be 80.6%. Besides, in test [2], half-maximal degradation (DC50) was put at 2.49 nM and the maximal degradation (Dmax) came out at 75%. Also, in test [3], the “Imax (%)” value stood at 110.3% and the IC50 is 4.7 nM. Besides, in test [4], the “Imax (%)” value was 101.3% and half-maximal inhibition (IC50) was put at 1.4 nM.
On to `Cc1cc2cc(n1)-c1c(C)nn(C)c1OC[C@H]1CC[C@H](C1)CN1/C(=N/C2=O)Nc2ccc(N3C[C@H](C)N(C4CCN(c5cc(F)c([C@H]6CCC(=O)NC6=O)c(F)c5)CC4)C[C@@H]3C)cc21` [Example 197, (R)-3-(4-(4-((2S,5S)-2,5-dimethyl-4-((7^1R,7^3S,E)-1^1,1^3,2^6-trimethyl-3-oxo-5^2,5^3-dihydro-1^1H,5^1H-9-oxa-4-aza-5(2,1)-benzo[d]imidazola-2(2,4)-pyridina-1(4,5)-pyrazola-7(1,3)-cyclopentanacyclononaphane-5^6-yl)piperazin-1-yl)piperidin-1-yl)-2,6-difluorophenyl)piperidine-2,6-dione], for which, in test [1], the DC50 came to 8.79 nM and the Dmax came to 74%. In test [2], this molecule gave a DC50 of 7.24 nM and a Dmax of 89.7%. In addition, in test [3], the “Imax (%)” value was 101.23% and the midpoint of inhibition, the IC50, lay at 9.16 nM. In addition, in test [4], the “Imax (%)” value was determined as 103.49% and the IC50 came to 3.38 nM.
Turning to `Cc1cc2cc(n1)-c1cnn(C)c1OC[C@H]1CCC(C1)CN1/C(=N/C2=O)Nc2ccc(N3CCC(N4CCC(Oc5cc(F)c([C@H]6CCC(=O)NC6=O)c(F)c5)CC4)CC3)cc21` [Example 113, (R)-3-(4-((1′-((7^1R,7^3S,E)-1^1,2^6-dimethyl-3-oxo-5^2,5^3-dihydro-1^1H,5^1H-9-oxa-4-aza-5(2,1)-benzo[d]imidazola-2(2,4)-pyridina-1(4,5)-pyrazola-7(1,3)-cyclopentanacyclononaphane-5^6-yl)-[1,4′-bipiperidin]-4-yl)oxy)-2,6-difluorophenyl)piperidine-2,6-dione], the DC50 in test [1] worked out at 3.49 nM; in test [2], 2.69 nM. In addition, the Dmax in test [1] turned out to be 70.5%; in test [2], 77.3%. For the same molecule, the “Imax (%)” value was 94.6% in test [3] and 99% in test [4]. Besides, the IC50 was found to be 17.1 nM in test [3] and 0.7 nM in test [4].
Take `Cc1cc2cc(n1)-c1c(C)nn(C)c1OC[C@H]1CC[C@H](C1)CN1/C(=N/C2=O)Nc2ccc(N3CCN(C4CCN(c5cc(F)c([C@H]6CCC(=O)NC6=O)c(F)c5)CC4)C[C@H]3CF)cc21` [Example 202, (R)-3-(2,6-difluoro-4-(4-((S)-3-(fluoromethyl)-4-((7R,7^3S,E)-1^1,1^3,2^6-trimethyl-3-oxo-5^2,5^3-dihydro-1^1H,5^1H-9-oxa-4-aza-5(2,1)-benzo[d]imidazola-2(2,4)-pyridina-1(4,5)-pyrazola-7(1,3)-cyclopentanacyclononaphane-5^6-yl)piperazin-1-yl)piperidin-1-yl)phenyl)piperidine-2,6-dione]: the DC50 in test [1] amounted to 1.06 nM; in test [2], 4.8 nM. Besides, the Dmax in test [1] turned out to be 92.5%; in test [2] it was 87.9%. Further, the figures for the “Imax (%)” value in test [3] and in test [4] were 92% and 100.52%, respectively. Also, the IC50 in test [3] is 9.25 nM; in test [4], 2.48 nM.
For the molecule `Cc1cc2cc(n1)-c1cnn(C)c1OC[C@H]1CCC(C1)CN1/C(=N/C2=O)Nc2ccc(N3CCN(C4CCN(c5c(F)cc(NC6CCC(=O)NC6=O)cc5F)CC4)CC3)cc21` (stereo partly drawn) [Example 92, 3-((4-(4-(4-((7^1R,7^3S,E)-1^1,2^6-dimethyl-3-oxo-5^2,5^3-dihydro-1^1H,5^1H-9-oxa-4-aza-5(2,1)-benzo[d]imidazola-2(2,4)-pyridina-1(4,5)-pyrazola-7(1,3)-cyclopentanacyclononaphane-5^6-yl)piperazin-1-yl)piperidin-1-yl)-3,5-difluorophenyl)amino)piperidine-2,6-dione], in test [1], the DC50 was 1.97 nM and the Dmax was 85.8%. In test [2], this molecule yielded a DC50 of 3.12 nM and a Dmax of 79.8%. Further, in test [3], the “Imax (%)” value is 97.2% and the IC50 is 10 nM. For the same molecule, in test [4], the “Imax (%)” value worked out at 100.1% and the IC50 stood at 1 nM.
Consider `COC[C@@H]1CN(c2cc3c(cc2F)N/C2=N\C(=O)c4cc(C)nc(c4)-c4c(C)nn(C)c4OC[C@H]4CC[C@H](C4)CN23)CCN1C1CCN(c2cc(F)c([C@H]3CCC(=O)NC3=O)c(F)c2)CC1` [Example 169, (R)-3-(2,6-difluoro-4-(4-((S)-4-((7^1R,7^3S,E)-5^5-fluoro-1^1,1^3,2^6-trimethyl-3-oxo-5^2,5^3-dihydro-1^1H,5^1H-9-oxa-4-aza-5(2,1)-benzo[d]imidazola-2(2,4)-pyridina-1(4,5)-pyrazola-7(1,3)-cyclopentanacyclononaphane-5^6-yl)-2-(methoxymethyl)piperazin-1-yl)piperidin-1-yl)phenyl)piperidine-2,6-dione], for which, in test [1], it took 2.62 nM to reach half-maximal degradation (DC50) and the Dmax was found to be 86.5%. In test [2], the DC50 was determined as 2.81 nM and the Dmax stood at 91.6%. Also, in test [3], the “Imax (%)” value came to 100.12% and the midpoint of inhibition, the IC50, lay at 8.76 nM. Moreover, in test [4], the “Imax (%)” value is reported as 102.95% and the IC50 came out at 2.5 nM.
In test [1], `Cc1cc2cc(n1)-c1c(C)nn(C)c1OC[C@H]1CC[C@H](C1)CN1/C(=N/C2=O)Nc2ccc(N(C)C3CCN(C4CCN(c5cc(F)c([C@H]6CCC(=O)NC6=O)c(F)c5)CC4)CC3)cc21` [Example 143, (R)-3-(2,6-difluoro-4-(4-(methyl((7^1R,7^3S,E)-1^1,1^3,2^6-trimethyl-3-oxo-5^2,5^3-dihydro-1^1H,5^1H-9-oxa-4-aza-5(2,1)-benzo[d]imidazola-2(2,4)-pyridina-1(4,5)-pyrazola-7(1,3)-cyclopentanacyclononaphane-5^6-yl)amino)-[1,4′-bipiperidin]-1-yl)phenyl)piperidine-2,6-dione] came in with a DC50 of 5.23 nM and a Dmax of 74.3%. In test [2], the DC50 amounted to 1.51 nM and the Dmax came out at 82%. Further, in test [3], the “Imax (%)” value is reported as 98.2% and inhibition was half-maximal at 7.8 nM (IC50). Besides, in test [4], the “Imax (%)” value worked out at 101.28% and it took 1.15 nM to reach half-maximal inhibition (IC50).
Turning to `Cc1cc2cc(n1)-c1c(C)nn(C)c1OC[C@H]1CC[C@H](C1)CN1/C(=N/C2=O)Nc2ccc(N3CC4CCC3CN4C3CCN(c4cc(F)c([C@H]5CCC(=O)NC5=O)c(F)c4)CC3)cc21` [Example 193, (3R)-3-(2,6-difluoro-4-(4-(5-((7^1R,7^3S,E)-1^1,1^3,2^6-trimethyl-3-oxo-5^2,5^3-dihydro-1^1H,5^1H-9-oxa-4-aza-5(2,1)-benzo[d]imidazola-2(2,4)-pyridina-1(4,5)-pyrazola-7(1,3)-cyclopentanacyclononaphane-5^6-yl)-2,5-diazabicyclo[2.2.2]octan-2-yl)piperidin-1-yl)phenyl)piperidine-2,6-dione], in test [1], the 50% degradation concentration (DC50) came to 7.4 nM and the Dmax turned out to be 76.2%. In test [2], this molecule gave a DC50 of 0.76 nM and a Dmax of 70.8%. Also, in test [3], the “Imax (%)” value is on record as 101.04% and half-maximal inhibition (IC50) required 2.35 nM. Besides, in test [4], the “Imax (%)” value amounted to 100.43% and 2.74 nM corresponded to half-maximal inhibition (IC50).
In test [1], `Cc1cc2cc(n1)-c1cnn(C)c1OC[C@H]1CCC(C1)CN1/C(=N/C2=O)Nc2ccc(N3CCN(C4CCN(c5c(F)cc(OC6CCC(=O)NC6=O)cc5F)CC4)CC3)cc21` (stereo partly drawn) [Example 111, 3-(4-(4-(4-((7^1R,7^3S,E)-1^1,2^6-dimethyl-3-oxo-5^2,5^3-dihydro-1^1H,5^1H-9-oxa-4-aza-5(2,1)-benzo[d]imidazola-2(2,4)-pyridina-1(4,5)-pyrazola-7(1,3)-cyclopentanacyclononaphane-5^6-1)piperazin-1-yl)piperidin-1-yl)-3,5-difluorophenoxy)piperidine-2,6-dione] had a 50% degradation concentration (DC50) of 3.18 nM and a Dmax of 80.7%. In test [2], this molecule registered a DC50 of 1.92 nM and a Dmax of 85.7%. For the same molecule, in test [3], the “Imax (%)” value was 97.6% and the IC50 is 16.1 nM. Besides, in test [4], the “Imax (%)” value was found to be 100.1% and the midpoint of inhibition, the IC50, lay at 1 nM.

As a reminder, the DC50 is the midpoint of the concentration-degradation curve. Read a low DC50 as a more potent degrader. The term Dmax denotes the largest share of the target that was removed. High values mean deep degradation, low ones shallow degradation. For orientation: IC50 means the concentration that inhibits the measured activity by half. The low end stands for higher potency, the high end for lower potency.
